Data as given in PubChem BioAssay AID1259407 (Chemical Carcinogenesis Research Information System (CCRIS), 2018).
Calls of active or inactive are those of the source. The rule behind the calls is not given here.

System: CCRIS mutagenicity, Ames/micronucleus/aberration tests
Assay: CCRIS mutagenicity studies
[1] = Test System: AMES SALMONELLA TYPHIMURIUM, Strain/Indicator: TA98, Metabolic Activation: NONE, Method: PREINCUBATION
[2] = Test System: AMES SALMONELLA TYPHIMURIUM, Strain/Indicator: TA100, Metabolic Activation: HAMSTER, LIVER, S-9, AROCLOR 1254 (10%), Method: PREINCUBATION
[3] = Test System: AMES SALMONELLA TYPHIMURIUM, Strain/Indicator: TA100, Metabolic Activation: NONE, Method: PREINCUBATION
[4] = Test System: AMES SALMONELLA TYPHIMURIUM, Strain/Indicator: TA100, Metabolic Activation: RAT, LIVER, S-9, AROCLOR 1254 (10%), Method: PREINCUBATION
[5] = Test System: AMES SALMONELLA TYPHIMURIUM, Strain/Indicator: TA1535, Metabolic Activation: NONE, Method: PREINCUBATION
[6] = Test System: AMES SALMONELLA TYPHIMURIUM, Strain/Indicator: TA1538, Metabolic Activation: RAT, LIVER, S-9, AROCLOR 1254, Method: STANDARD PLATE

COC(C)(C)CC(C)=O
mutagenic call (Test System: AMES SALMONELLA TYPHIMURIUM, Strain/Indicator: TA98, Metabolic Activation: HAMSTER, LIVER, S-9, AROCLOR 1254 (10%), Method: PREINCUBATION): inactive; negative
mutagenic call [1]: inactive; negative
mutagenic call (Test System: AMES SALMONELLA TYPHIMURIUM, Strain/Indicator: TA98, Metabolic Activation: RAT, LIVER, S-9, AROCLOR 1254 (10%), Method: PREINCUBATION): inactive; negative
mutagenic call [2]: inactive; negative
mutagenic call [3]: inactive; negative
mutagenic call [4]: inactive; negative
mutagenic call (Test System: AMES SALMONELLA TYPHIMURIUM, Strain/Indicator: TA1535, Metabolic Activation: HAMSTER, LIVER, S-9, AROCLOR 1254 (10%), Method: PREINCUBATION): inactive; negative
mutagenic call [5]: inactive; negative
mutagenic call (Test System: AMES SALMONELLA TYPHIMURIUM, Strain/Indicator: TA1535, Metabolic Activation: RAT, LIVER, S-9, AROCLOR 1254 (10%), Method: PREINCUBATION): inactive; negative
mutagenic call (Test System: AMES SALMONELLA TYPHIMURIUM, Strain/Indicator: TA1537, Metabolic Activation: HAMSTER, LIVER, S-9, AROCLOR 1254 (10%), Method: PREINCUBATION): inactive; negative
mutagenic call (Test System: AMES SALMONELLA TYPHIMURIUM, Strain/Indicator: TA1537, Metabolic Activation: NONE, Method: PREINCUBATION): inactive; negative
mutagenic call (Test System: AMES SALMONELLA TYPHIMURIUM, Strain/Indicator: TA1537, Metabolic Activation: RAT, LIVER, S-9, AROCLOR 1254 (10%), Method: PREINCUBATION): inactive; negative

C=C(C=O)C[C@@H]1C[C@H](O)[C@@H]2O[C@@H]3C[C@@H]4O[C@@H]5/C=C\C[C@@H]6O[C@H]7[C@H](C/C=C\C[C@H]6O[C@H]5CCC[C@H]4O[C@H]3C[C@H]2O1)O[C@@H]1C[C@@H]2O[C@@H]3CC(=O)O[C@H]3C[C@@H](C)C[C@@]2(C)O[C@H]1C[C@@H]7C
mutagenic call (End Point: In vitro chromosomal aberrations, Test System: Chinese hamster ovary (CHO-K1-BH4) cells, Metabolic Activation: None): active; positive (structural changes)

Cc1ccc(NO)cc1[N+](=O)[O-]
mutagenic call (Test System: AMES SALMONELLA TYPHIMURIUM, Strain/Indicator: TA98, Metabolic Activation: NONE, Method: SUSPENSION/PLATE): inactive; negative
mutagenic call (Test System: AMES SALMONELLA TYPHIMURIUM, Strain/Indicator: TA98, Metabolic Activation: RAT, LIVER, S-9, PHENOBARBITAL AND 5,6-BENZOFLAVONE, Method: SUSPENSION/PLATE): inactive; negative
mutagenic call (Test System: AMES SALMONELLA TYPHIMURIUM, Strain/Indicator: TA100, Metabolic Activation: NONE, Method: SUSPENSION/PLATE): inactive; negative
mutagenic call (Test System: AMES SALMONELLA TYPHIMURIUM, Strain/Indicator: TA100, Metabolic Activation: RAT, LIVER, S-9, PHENOBARBITAL AND 5,6-BENZOFLAVONE, Method: SUSPENSION/PLATE): inactive; negative

COc1nsc2ccc(N)cc12
mutagenic call (Test System: AMES SALMONELLA TYPHIMURIUM, Strain/Indicator: TA100, Metabolic Activation: S-9, Method: STANDARD PLATE): active; positive

O=PO.O=PO.[Mn+2]
mutagenic call (Test System: AMES SALMONELLA TYPHIMURIUM, Strain/Indicator: TA98, Metabolic Activation: NONE, Method: STANDARD PLATE): inactive; negative
mutagenic call (Test System: AMES SALMONELLA TYPHIMURIUM, Strain/Indicator: TA98, Metabolic Activation: RAT, LIVER, S-9, AROCLOR 1254, Method: STANDARD PLATE): inactive; negative
mutagenic call (Test System: AMES SALMONELLA TYPHIMURIUM, Strain/Indicator: TA100, Metabolic Activation: NONE, Method: STANDARD PLATE): inactive; negative
mutagenic call (Test System: AMES SALMONELLA TYPHIMURIUM, Strain/Indicator: TA100, Metabolic Activation: RAT, LIVER, S-9, AROCLOR 1254, Method: STANDARD PLATE): inactive; negative
mutagenic call (Test System: AMES SALMONELLA TYPHIMURIUM, Strain/Indicator: TA1535, Metabolic Activation: NONE, Method: STANDARD PLATE): inactive; negative
mutagenic call (Test System: AMES SALMONELLA TYPHIMURIUM, Strain/Indicator: TA1535, Metabolic Activation: RAT, LIVER, S-9, AROCLOR 1254, Method: STANDARD PLATE): inactive; negative
mutagenic call (Test System: AMES SALMONELLA TYPHIMURIUM, Strain/Indicator: TA1537, Metabolic Activation: NONE, Method: STANDARD PLATE): inactive; negative
mutagenic call (Test System: AMES SALMONELLA TYPHIMURIUM, Strain/Indicator: TA1537, Metabolic Activation: RAT, LIVER, S-9, AROCLOR 1254, Method: STANDARD PLATE): inactive; negative
mutagenic call (Test System: AMES SALMONELLA TYPHIMURIUM, Strain/Indicator: TA1538, Metabolic Activation: NONE, Method: STANDARD PLATE): inactive; negative
mutagenic call [6]: inactive; negative
mutagenic call (Test System: E. COLI, Strain/Indicator: WP2, Metabolic Activation: NONE, Method: STANDARD PLATE): inactive; negative
mutagenic call (Test System: E. COLI, Strain/Indicator: WP2, Metabolic Activation: RAT, LIVER, S-9, AROCLOR 1254, Method: STANDARD PLATE): inactive; negative

CC1(C)Cc2ncccc2-c2nc(N)sc21
mutagenic call [6]: active; positive

CO[C@@]12[C@H](CO)C3=C(C(=O)C(C)=C(N)C3=O)N1C[C@@H]1N[C@@H]12
mutagenic call (Test System: CHINESE HAMSTER V-79, Strain/Indicator: V-79/6-THIOGUANINE, Metabolic Activation: NONE, Method: FLASK ASSAY): active; positive

CCOc1ccccc1N
mutagenic call (Test System: AMES SALMONELLA TYPHIMURIUM, Strain/Indicator: TA97, Metabolic Activation: HAMSTER, LIVER, S-9, AROCLOR 1254 (10 OR 30%), Method: PREINCUBATION): inactive; negative
mutagenic call (Test System: AMES SALMONELLA TYPHIMURIUM, Strain/Indicator: TA97, Metabolic Activation: NONE, Method: PREINCUBATION): inactive; negative
mutagenic call (Test System: AMES SALMONELLA TYPHIMURIUM, Strain/Indicator: TA97, Metabolic Activation: RAT, LIVER, S-9, AROCLOR 1254 (10 OR 30%), Method: PREINCUBATION): inactive; negative
mutagenic call (Test System: AMES SALMONELLA TYPHIMURIUM, Strain/Indicator: TA98, Metabolic Activation: HAMSTER, LIVER, S-9, AROCLOR 1254 (10 OR 30%), Method: PREINCUBATION): inactive; negative
mutagenic call [1]: inactive; negative
mutagenic call (Test System: AMES SALMONELLA TYPHIMURIUM, Strain/Indicator: TA98, Metabolic Activation: RAT, LIVER, S-9, AROCLOR 1254 (10 OR 30%), Method: PREINCUBATION): inactive; negative
mutagenic call [2]: inactive; negative
mutagenic call (Test System: AMES SALMONELLA TYPHIMURIUM, Strain/Indicator: TA100, Metabolic Activation: HAMSTER, LIVER, S-9, AROCLOR 1254 (30%), Method: PREINCUBATION): inactive; negative
mutagenic call [3]: inactive; negative
mutagenic call [4]: inactive; negative
mutagenic call (Test System: AMES SALMONELLA TYPHIMURIUM, Strain/Indicator: TA100, Metabolic Activation: RAT, LIVER, S-9, AROCLOR 1254 (30%), Method: PREINCUBATION): inactive; negative
mutagenic call (Test System: AMES SALMONELLA TYPHIMURIUM, Strain/Indicator: TA1535, Metabolic Activation: HAMSTER, LIVER, S-9, AROCLOR 1254 (10 OR 30%), Method: PREINCUBATION): inactive; negative
mutagenic call [5]: inactive; negative
mutagenic call (Test System: AMES SALMONELLA TYPHIMURIUM, Strain/Indicator: TA1535, Metabolic Activation: RAT, LIVER, S-9, AROCLOR 1254 (10 OR 30%), Method: PREINCUBATION): inactive; negative
